pIC50: −log10 of the molar value. Where a SMILES comes first, the peptide text is derived from it. Bridges are numbered along the chain shown (N, C = ends).
Columns and labels:
Assay type in all cases: cell-based
hNav1.1 = target: T1, hNav1.1 (Homo sapiens, UniProt P35498); experiment: FLIPR membrane potential assay, hNav1.1; conditions: for Selectivity for Nav1.7, Nav subtype 1.1: membrane potential assay
T1 construct: host or cells: HEK293
Method: (§1) HEK293 cells stably expressing hNav1.1, hNav1.2, hNav1.3, hNav1.4, hNav1.5, hNav1.6, hNav1.7 and […] (SB Drug Discovery, Glasgow, UK) were cultured in minimum essential media (MEM) containing 10% v/v FBS supplemented with L-glutamine (2 mM) and selection antibiotics G-418 (0.5 mg/mL), blasticidin (2-4 μg/mL) and zeocin (0.5 mg/mL) as recommended by the manufacturer. CHO cells stably expressing hNav1.8 in a tetracycline-inducible system (Chantest, OH, USA) were cultured in Ham's F-12 containing 10% v/v FBS and selection antibiotics as recommended by the manufacturer. To induce hNav1.8 expression, cells were cultured in the presence of tetracycline (1 μg/mL) for 24 h at 27° C. Cells were grown in a humidified 5% CO2 incubator at 37° C., grown to 70-80% confluence, and passaged every 3-4 days using TrypLE Express (Invitrogen).
(§2) Cells were plated 48 h before the assay on 384-well black walled imaging plates at a density of 10,000 to 15,000 cells per well and were loaded with red membrane potential dye for 30 min at 37° C. (Molecular Devices, CA, USA). One vial of bulk red membrane potential dye was reconstituted to a 10× stock solution with PSS and stored at −20° C. and diluted to 1× solution with PSS on the day of the assay. […] Changes in membrane potential were assessed using the FLIPR^TETRA (excitation 515 to 545 nm, emission 565 to 625 nm) every second for 300 s after adding agonists.

hNav1.4 = target: T2, hNav1.4 (Homo sapiens, UniProt P35499); experiment: FLIPR membrane potential assay, hNav1.4; conditions: for Selectivity for Nav1.7, Nav subtype 1.4: membrane potential assay
T2 construct: host or cells: HEK293
Method: as §1, §2

hNav1.5 = target: T3, hNav1.5 (Homo sapiens, UniProt Q14524); experiment: FLIPR membrane potential assay, hNav1.5; conditions: for Selectivity for Nav1.7, Nav subtype 1.5: membrane potential assay
T3 construct: host or cells: HEK293
Method: as §1, §2

hNav1.8 = target: T4, hNav1.8 (Homo sapiens, UniProt Q9Y5Y9); experiment: FLIPR membrane potential assay, hNav1.8; conditions: for Selectivity for Nav1.7, Nav subtype 1.8: membrane potential assay
T4 construct: host or cells: HEK293
Method: as §1, §2

hNav1.7 = target: T5, hNav1.7 (Homo sapiens, UniProt Q15858); experiment: FLIPR membrane potential assay, hNav1.7; conditions: for Selectivity for Nav1.7, Nav subtype 1.7: membrane potential assay, reference subtype
T5 construct: host or cells: HEK293
Method: as §1, §2

hNav1.2 = target: T6, hNav1.2 (Homo sapiens, UniProt Q99250); experiment: FLIPR membrane potential assay, hNav1.2; conditions: for Selectivity for Nav1.7, Nav subtype 1.2: membrane potential assay
T6 construct: host or cells: HEK293
Method: as §1, §2

hNav1.6 = target: T7, hNav1.6 (Homo sapiens, UniProt Q9UQD0); experiment: FLIPR membrane potential assay, hNav1.6; conditions: for Selectivity for Nav1.7, Nav subtype 1.6: membrane potential assay
T7 construct: host or cells: HEK293
Method: as §1, §2

hNav1.3 = target: T8, hNav1.3 (Homo sapiens, UniProt Q9NY46); experiment: FLIPR membrane potential assay, hNav1.3; conditions: for Selectivity for Nav1.7, Nav subtype 1.3: membrane potential assay
T8 construct: host or cells: HEK293
Method: as §1, §2

T7 sequence (Q9UQD0 whole entry): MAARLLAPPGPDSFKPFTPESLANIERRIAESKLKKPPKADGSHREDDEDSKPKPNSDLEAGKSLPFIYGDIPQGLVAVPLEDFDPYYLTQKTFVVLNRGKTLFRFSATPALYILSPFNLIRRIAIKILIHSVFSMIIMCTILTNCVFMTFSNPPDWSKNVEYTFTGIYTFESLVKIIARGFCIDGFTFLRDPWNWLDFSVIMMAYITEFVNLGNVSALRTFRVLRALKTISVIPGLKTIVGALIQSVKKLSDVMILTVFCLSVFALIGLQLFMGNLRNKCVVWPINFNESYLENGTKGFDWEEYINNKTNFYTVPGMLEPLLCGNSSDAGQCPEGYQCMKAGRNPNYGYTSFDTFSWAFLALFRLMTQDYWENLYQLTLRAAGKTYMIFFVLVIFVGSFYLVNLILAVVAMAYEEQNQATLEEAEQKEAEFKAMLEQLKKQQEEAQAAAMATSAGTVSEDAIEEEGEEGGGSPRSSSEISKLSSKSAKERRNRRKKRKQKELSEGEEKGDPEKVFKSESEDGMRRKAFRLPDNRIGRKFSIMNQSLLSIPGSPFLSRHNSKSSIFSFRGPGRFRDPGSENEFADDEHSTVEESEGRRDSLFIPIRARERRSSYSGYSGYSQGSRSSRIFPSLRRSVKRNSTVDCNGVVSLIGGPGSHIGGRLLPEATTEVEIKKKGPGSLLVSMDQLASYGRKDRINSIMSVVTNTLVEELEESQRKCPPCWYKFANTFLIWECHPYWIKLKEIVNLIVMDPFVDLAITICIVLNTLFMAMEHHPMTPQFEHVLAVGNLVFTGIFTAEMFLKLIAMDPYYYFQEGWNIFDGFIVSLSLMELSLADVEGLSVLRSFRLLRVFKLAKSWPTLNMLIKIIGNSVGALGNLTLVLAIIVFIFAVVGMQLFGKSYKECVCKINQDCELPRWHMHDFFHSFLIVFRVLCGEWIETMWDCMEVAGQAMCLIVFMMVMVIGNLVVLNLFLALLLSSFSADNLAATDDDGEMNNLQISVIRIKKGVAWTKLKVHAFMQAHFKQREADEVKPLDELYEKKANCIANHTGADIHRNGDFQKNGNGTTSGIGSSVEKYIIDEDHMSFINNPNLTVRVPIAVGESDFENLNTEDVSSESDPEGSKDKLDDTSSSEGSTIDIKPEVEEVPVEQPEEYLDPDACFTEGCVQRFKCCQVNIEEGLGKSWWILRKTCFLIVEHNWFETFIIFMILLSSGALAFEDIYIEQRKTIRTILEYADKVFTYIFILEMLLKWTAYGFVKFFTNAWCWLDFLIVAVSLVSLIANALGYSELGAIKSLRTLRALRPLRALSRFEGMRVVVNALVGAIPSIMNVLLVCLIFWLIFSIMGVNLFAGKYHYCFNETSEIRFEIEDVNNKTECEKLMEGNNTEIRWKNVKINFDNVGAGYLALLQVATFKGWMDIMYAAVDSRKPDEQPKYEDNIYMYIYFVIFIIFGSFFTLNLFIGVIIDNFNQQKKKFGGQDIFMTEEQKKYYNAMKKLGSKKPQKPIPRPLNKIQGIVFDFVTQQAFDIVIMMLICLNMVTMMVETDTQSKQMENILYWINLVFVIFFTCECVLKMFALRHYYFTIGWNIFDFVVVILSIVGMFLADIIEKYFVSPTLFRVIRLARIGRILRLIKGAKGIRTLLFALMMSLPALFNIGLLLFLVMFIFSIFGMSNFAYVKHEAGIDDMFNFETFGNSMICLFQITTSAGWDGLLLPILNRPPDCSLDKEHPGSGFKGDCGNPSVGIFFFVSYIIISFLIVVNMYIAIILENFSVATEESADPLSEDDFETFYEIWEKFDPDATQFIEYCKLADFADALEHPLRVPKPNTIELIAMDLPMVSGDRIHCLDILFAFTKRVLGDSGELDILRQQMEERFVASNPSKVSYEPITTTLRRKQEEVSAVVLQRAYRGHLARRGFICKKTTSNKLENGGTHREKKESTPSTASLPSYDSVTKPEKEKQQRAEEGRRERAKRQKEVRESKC
T8 sequence (Q9NY46 whole entry): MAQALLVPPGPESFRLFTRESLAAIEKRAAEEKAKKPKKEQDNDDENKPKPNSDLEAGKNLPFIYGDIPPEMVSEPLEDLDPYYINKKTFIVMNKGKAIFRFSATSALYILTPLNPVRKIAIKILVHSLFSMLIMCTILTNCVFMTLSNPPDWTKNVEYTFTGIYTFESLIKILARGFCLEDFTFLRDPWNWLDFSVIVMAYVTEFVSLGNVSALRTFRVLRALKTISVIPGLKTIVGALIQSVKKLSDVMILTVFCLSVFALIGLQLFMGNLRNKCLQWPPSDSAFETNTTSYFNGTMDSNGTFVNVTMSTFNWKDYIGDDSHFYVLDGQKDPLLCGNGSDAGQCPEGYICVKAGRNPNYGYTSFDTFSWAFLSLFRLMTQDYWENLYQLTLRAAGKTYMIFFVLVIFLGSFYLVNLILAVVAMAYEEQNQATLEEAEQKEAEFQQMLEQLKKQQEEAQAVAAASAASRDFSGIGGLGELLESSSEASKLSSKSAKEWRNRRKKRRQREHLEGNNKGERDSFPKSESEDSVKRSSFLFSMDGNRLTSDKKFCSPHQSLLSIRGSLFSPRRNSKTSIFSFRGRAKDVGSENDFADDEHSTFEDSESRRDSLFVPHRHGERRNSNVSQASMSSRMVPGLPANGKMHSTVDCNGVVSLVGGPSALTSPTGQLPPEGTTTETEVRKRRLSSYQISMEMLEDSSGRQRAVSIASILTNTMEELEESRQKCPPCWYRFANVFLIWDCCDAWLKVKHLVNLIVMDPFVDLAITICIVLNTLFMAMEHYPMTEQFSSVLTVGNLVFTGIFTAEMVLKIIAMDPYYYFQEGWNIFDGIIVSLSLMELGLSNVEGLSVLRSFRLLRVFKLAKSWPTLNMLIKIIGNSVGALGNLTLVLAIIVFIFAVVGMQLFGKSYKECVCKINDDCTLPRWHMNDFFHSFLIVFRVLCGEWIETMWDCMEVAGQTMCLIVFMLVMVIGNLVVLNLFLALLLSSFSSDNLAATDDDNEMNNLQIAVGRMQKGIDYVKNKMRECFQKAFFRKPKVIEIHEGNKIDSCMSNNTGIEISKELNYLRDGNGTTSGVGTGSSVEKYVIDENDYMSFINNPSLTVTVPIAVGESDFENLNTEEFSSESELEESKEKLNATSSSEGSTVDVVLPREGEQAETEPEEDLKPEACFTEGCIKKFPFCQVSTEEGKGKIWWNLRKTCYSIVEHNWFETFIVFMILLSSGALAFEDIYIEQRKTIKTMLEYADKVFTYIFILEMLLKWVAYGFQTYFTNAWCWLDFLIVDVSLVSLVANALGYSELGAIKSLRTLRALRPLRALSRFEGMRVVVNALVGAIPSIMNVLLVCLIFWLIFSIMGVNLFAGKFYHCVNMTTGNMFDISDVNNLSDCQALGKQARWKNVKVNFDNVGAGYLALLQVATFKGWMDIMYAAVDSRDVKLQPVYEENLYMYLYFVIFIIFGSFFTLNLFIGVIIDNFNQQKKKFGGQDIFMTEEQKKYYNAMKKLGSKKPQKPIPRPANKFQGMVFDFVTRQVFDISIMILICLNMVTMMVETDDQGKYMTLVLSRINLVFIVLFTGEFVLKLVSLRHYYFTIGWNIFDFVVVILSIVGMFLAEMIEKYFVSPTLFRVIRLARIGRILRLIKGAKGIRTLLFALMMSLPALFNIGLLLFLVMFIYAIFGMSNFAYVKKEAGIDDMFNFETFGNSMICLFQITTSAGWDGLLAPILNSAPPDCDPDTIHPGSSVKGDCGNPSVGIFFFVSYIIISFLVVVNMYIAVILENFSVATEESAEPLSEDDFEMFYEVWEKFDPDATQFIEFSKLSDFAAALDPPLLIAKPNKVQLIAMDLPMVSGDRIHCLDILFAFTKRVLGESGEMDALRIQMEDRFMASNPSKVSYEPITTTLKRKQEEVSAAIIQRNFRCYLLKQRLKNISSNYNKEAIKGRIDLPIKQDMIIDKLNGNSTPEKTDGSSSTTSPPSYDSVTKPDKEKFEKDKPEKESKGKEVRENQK

Row | Compound | pIC50 (hNav1.1) | Selectivity for Nav1.7, Nav subtype 1.1 (hNav1.1) | pIC50 (hNav1.4) | Selectivity for Nav1.7, Nav subtype 1.4 (hNav1.4) | pIC50 (hNav1.5) | Selectivity for Nav1.7, Nav subtype 1.5 (hNav1.5) | pIC50 (hNav1.8) | Selectivity for Nav1.7, Nav subtype 1.8 (hNav1.8) | pIC50 (hNav1.7) | Selectivity for Nav1.7, Nav subtype 1.7 (hNav1.7) | pIC50 (hNav1.2) | Selectivity for Nav1.7, Nav subtype 1.2 (hNav1.2) | pIC50 (hNav1.6) | Selectivity for Nav1.7, Nav subtype 1.6 (hNav1.6) | pIC50 (hNav1.3) | Selectivity for Nav1.7, Nav subtype 1.3 (hNav1.3)
1 | CSCC[C@@H]1NC(=O)[C@H](Cc2ccc(O)cc2)NC(=O)[C@H](CCCNC(=N)N)NC(=O)[C@@H](NC(=O)[C@@H](N)CC(=O)O)CSSC[C@@H]2NC(=O)[C@@H]3CSSC[C@@H](C(=O)N[C@@H](C)C(=O)N[C@@H](Cc4c[nH]c5ccccc45)C(=O)N[C@@H](CC(=O)O)C(=O)N[C@@H](Cc4ccccc4)C(=O)N[C@H](C(=O)N[C@@H](Cc4ccccc4)C(=O)N[C@H](C(=O)O)[C@@H](C)O)[C@@H](C)O)NC(=O)[C@H](Cc4ccc(O)cc4)NC(=O)[C@H](CCCCN)NC(=O)[C@H](CCSC)NC(=O)[C@H](CCCCN)NC(=O)[C@H](CCCNC(=N)N)NC(=O)[C@H](CCCCN)NC(=O)[C@H](CSSC[C@H](NC(=O)CNC(=O)CNC(=O)[C@H](Cc4ccccc4)NC1=O)C(=O)N[C@@H](CCC(=O)O)C(=O)N[C@@H](CCCCN)C(=O)N[C@@H](CC(=O)O)C(=O)N[C@@H](CCC(=O)O)C(=O)N[C@@H](CC(=O)O)C(=O)N3)NC(=O)CNC(=O)[C@H](CC(C)C)NC(=O)[C@H](Cc1c[nH]cn1)NC(=O)[C@H](CCCCN)NC2=O [[D8G]Pnc1a] (H-DCRYMFGGCEKDEDCCKHLGCKRKMKYCAWDFTFT-OH; disulfide 2-16, 9-21, 15-28) | 5.70 | 35 | 5.70 | 48 | < 4.52 | >616 | < 4.52 | >616 | 7.31 | 1 | 6.52 | 6 | 5.70 | 46 | 6.18 | 13
2 | CSCC[C@@H]1NC(=O)[C@H](Cc2ccc(O)cc2)NC(=O)[C@H](CCCNC(=N)N)NC(=O)[C@@H](NC(=O)[C@@H](N)CC(=O)O)CSSC[C@@H]2NC(=O)[C@@H]3CSSC[C@@H](C(=O)N[C@@H](C)C(=O)N[C@@H](Cc4c[nH]c5ccccc45)C(=O)N[C@@H](CC(=O)O)C(=O)N[C@@H](Cc4ccccc4)C(=O)N[C@H](C(=O)N[C@@H](Cc4ccccc4)C(=O)N[C@H](C(=O)O)[C@@H](C)O)[C@@H](C)O)NC(=O)[C@H](Cc4ccc(O)cc4)NC(=O)[C@H](CCCCN)NC(=O)[C@H](CCSC)NC(=O)[C@H](CCCCN)NC(=O)[C@H](CCCNC(=N)N)NC(=O)[C@H](CCCCN)NC(=O)[C@H](CSSC[C@H](NC(=O)[C@H](CCCCN)NC(=O)CNC(=O)[C@H](Cc4ccccc4)NC1=O)C(=O)N[C@@H](CCC(=O)O)C(=O)N[C@@H](CCCCN)C(=O)N[C@@H](CC(=O)O)C(=O)N[C@@H](CCC(=O)O)C(=O)N[C@@H](CC(=O)O)C(=O)N3)NC(=O)CNC(=O)[C@H](CC(C)C)NC(=O)[C@H](Cc1c[nH]cn1)NC(=O)[C@H](CCCCN)NC2=O [[D8K]Pnc1a] (H-DCRYMFGKCEKDEDCCKHLGCKRKMKYCAWDFTFT-OH; disulfide 2-16, 9-21, 15-28) | 6.62 | 19 | 6.18 | 52 | < 4.52 | >2000 | < 4.52 | >2000 | 7.89 | 1 | 7.40 | 3 | < 4.52 | >2000 | 5.70 | 159
3 | CSCC[C@@H]1NC(=O)[C@H](Cc2ccc(O)cc2)NC(=O)[C@H](CCCNC(=N)N)NC(=O)[C@@H](NC(=O)[C@@H](N)CC(=O)O)CSSC[C@@H]2NC(=O)[C@@H]3CSSC[C@@H](C(=O)N[C@@H](C)C(=O)N[C@@H](Cc4c[nH]c5ccccc45)C(=O)N[C@@H](CC(=O)O)C(=O)N[C@@H](Cc4ccccc4)C(=O)N[C@H](C(=O)N[C@@H](Cc4ccccc4)C(=O)N[C@H](C(=O)O)[C@@H](C)O)[C@@H](C)O)NC(=O)[C@H](Cc4ccc(O)cc4)NC(=O)[C@H](CCCCN)NC(=O)[C@H](CCSC)NC(=O)[C@H](CCCCN)NC(=O)[C@H](CCCNC(=N)N)NC(=O)[C@H](CCCCN)NC(=O)[C@H](CSSC[C@H](NC(=O)[C@H](CC(N)=O)NC(=O)CNC(=O)[C@H](Cc4ccccc4)NC1=O)C(=O)N[C@@H](CCC(=O)O)C(=O)N[C@@H](CCCCN)C(=O)N[C@@H](CC(=O)O)C(=O)N[C@@H](CCC(=O)O)C(=O)N[C@@H](CC(=O)O)C(=O)N3)NC(=O)CNC(=O)[C@H](CC(C)C)NC(=O)[C@H](Cc1c[nH]cn1)NC(=O)[C@H](CCCCN)NC2=O [[D8N]Pnc1a] (H-DCRYMFGNCEKDEDCCKHLGCKRKMKYCAWDFTFT-OH; disulfide 2-16, 9-21, 15-28) | 6.46 | 14 | 6.07 | 35 | < 4.52 | >1000 | < 4.52 | >1000 | 7.62 | 1 | 6.83 | 6 | < 4.52 | >1000 | 5.52 | 118
4 | CSCC[C@@H]1NC(=O)[C@H](Cc2ccc(O)cc2)NC(=O)[C@H](CCCNC(=N)N)NC(=O)[C@@H](NC(=O)[C@@H](N)CC(=O)O)CSSC[C@@H]2NC(=O)[C@@H]3CSSC[C@@H](C(=O)N[C@@H](C)C(=O)N[C@@H](Cc4c[nH]c5ccccc45)C(=O)N[C@@H](CC(=O)O)C(=O)N[C@@H](Cc4ccccc4)C(=O)N[C@H](C(=O)N[C@@H](Cc4ccccc4)C(=O)N[C@H](C(=O)O)[C@@H](C)O)[C@@H](C)O)NC(=O)[C@H](Cc4ccc(O)cc4)NC(=O)[C@H](CCCCN)NC(=O)[C@H](CCSC)NC(=O)[C@H](CCCCN)NC(=O)[C@H](CCCNC(=N)N)NC(=O)[C@H](CCCCN)NC(=O)[C@H](CSSC[C@H](NC(=O)[C@H](CC(=O)O)NC(=O)CNC(=O)[C@H](Cc4ccccc4)NC1=O)C(=O)N[C@@H](CCCCN)C(=O)N[C@@H](CCCCN)C(=O)N[C@@H](CC(=O)O)C(=O)N[C@@H](CCC(=O)O)C(=O)N[C@@H](CC(=O)O)C(=O)N3)NC(=O)CNC(=O)[C@H](CC(C)C)NC(=O)[C@H](Cc1c[nH]cn1)NC(=O)[C@H](CCCCN)NC2=O [[E10K]Pnc1a] (H-DCRYMFGDCKKDEDCCKHLGCKRKMKYCAWDFTFT-OH; disulfide 2-16, 9-21, 15-28) | 6.42 | 9 | 5.70 | 49 | 4.89 | 326 | < 4.52 | >700 | 7.39 | 1 | 6.76 | 4 | 6.09 | 20 | 5.30 | 128
5 | CSCC[C@@H]1NC(=O)[C@H](Cc2ccc(O)cc2)NC(=O)[C@H](CCCNC(=N)N)NC(=O)[C@@H](NC(=O)[C@@H](N)CC(=O)O)CSSC[C@@H]2NC(=O)[C@@H]3CSSC[C@@H](C(=O)N[C@@H](C)C(=O)N[C@@H](Cc4c[nH]c5ccccc45)C(=O)N[C@@H](CC(=O)O)C(=O)N[C@@H](Cc4ccccc4)C(=O)N[C@H](C(=O)N[C@@H](Cc4ccccc4)C(=O)N[C@H](C(=O)O)[C@@H](C)O)[C@@H](C)O)NC(=O)[C@H](Cc4ccc(O)cc4)NC(=O)[C@H](CCCCN)NC(=O)[C@H](CCSC)NC(=O)[C@H](CCCCN)NC(=O)[C@H](CCCNC(=N)N)NC(=O)[C@H](CCCCN)NC(=O)[C@H](CSSC[C@H](NC(=O)[C@H](CC(=O)O)NC(=O)CNC(=O)[C@H](Cc4ccccc4)NC1=O)C(=O)N[C@@H](CCC(=O)O)C(=O)N[C@@H](CCCCN)C(=O)N[C@@H](CC(=O)O)C(=O)N[C@@H](C)C(=O)N[C@@H](CC(=O)O)C(=O)N3)NC(=O)CNC(=O)[C@H](CC(C)C)NC(=O)[C@H](Cc1c[nH]cn1)NC(=O)[C@H](CCCCN)NC2=O [[E13A]Pnc1a] (H-DCRYMFGDCEKDADCCKHLGCKRKMKYCAWDFTFT-OH; disulfide 2-16, 9-21, 15-28) | 5.40 | 29 | 5.30 | 36 | < 4.52 | >217 | < 4.52 | >217 | 6.86 | 1 | 6.25 | 4 | 5.10 | 61 | 5.70 | 18

— patent US10662229B2, “Spider venom peptides and methods of use for modulating sodium channels” (priority 2016, dated 2020)
